Converted amounts (≈) assume the structure as drawn.
What was measured:
Type in all cases: functional
Enterococcus faecalis [1] = assay: Antibacterial activity against Enterococcus faecalis 1
Staphylococcus aureus [2] = assay: Inhibitory activity against Staphylococcus aureus MRS
Staphylococcus aureus [3] = assay: Antibacterial activity against Staphylococcus aureus Oxford
Enterococcus faecalis [4] = assay: Antibacterial activity against Enterococcus faecalis
Enterococcus faecium = assay: Antibacterial activity against Enterococcus faecium
[5] = system: Staphylococcus epidermidis; assay: Antibacterial activity against Staphylococcus epidermidis
Staphylococcus aureus [6] = assay: Antibacterial activity against Staphylococcus aureus

Row | Structure (SMILES) | MIC (Enterococcus faecalis [1]) | IC50 (Staphylococcus aureus [2]) | MIC (Staphylococcus aureus [3]) | MIC90 (Enterococcus faecalis [4]) | MIC90 (Enterococcus faecium) | MIC90 [5] | MIC90 (Staphylococcus aureus [6])
1 | Oc1cc(N[C@@H]2CCC[C@H](NCc3ccc(Cl)c(Cl)c3)C2)nc2ccccc12 (racemic) | 32 µg/mL (≈ 76.9 µM) | 150 nM | 64 µg/mL (≈ 154 µM) | – | – | – | –
2 | Oc1cc(NC[C@H]2CCC[C@H]2NCc2ccc(Cl)c(Cl)c2)nc2ccccc12 | 8 µg/mL (≈ 19.2 µM) | 18 nM | 16 µg/mL (≈ 38.4 µM) | – | – | – | –
3 | Oc1cc(NCc2ccccc2NCc2ccc(Cl)c(Cl)c2)nc2ccccc12 | > 64 µg/mL | 56 nM | > 64 µg/mL | – | – | – | –
4 | Oc1cc(N[C@H]2CCC[C@H](NCc3ccc(Cl)c(Cl)c3)C2)nc2ccccc12 (racemic) | > 64 µg/mL | 43 nM | > 64 µg/mL | – | – | – | –
5 | Oc1cc(NC[C@H]2CCC[C@@H]2NCc2ccc(Cl)c(Cl)c2)nc2ccccc12 | 0.125 µg/mL (≈ 0.3 µM) | 9 nM | 1 µg/mL (≈ 2.4 µM) | – | – | – | –
6 | CCOc1c(Br)cc(Br)cc1CN[C@H]1CCC[C@@H]1CNc1cc(O)c2ccccc2n1 | < 0.06 µg/mL | 7.6 nM | < 0.06 µg/mL | 0.03 µg/mL (≈ 0.0546 µM) | < 0.016 µg/mL | 0.125 µg/mL (≈ 0.228 µM) | 0.06 µg/mL (≈ 0.109 µM)
7 | Oc1cc(NC[C@@H]2CCC[C@H]2NCc2ccc(Cl)c(Cl)c2)nc2ccccc12 | 32 µg/mL (≈ 76.9 µM) | 700 nM | > 64 µg/mL | – | – | – | –
8 | Oc1cc(NCC2=CCCC2NCc2ccc(Cl)c(Cl)c2)nc2ccccc12 (racemic) | > 64 µg/mL | 10 nM | > 64 µg/mL | – | – | – | –
9 | Oc1cc(NC[C@H]2CC[C@H]2NCc2ccc(Cl)c(Cl)c2)nc2ccccc12 (racemic) | 16 µg/mL (≈ 39.8 µM) | 110 nM | > 64 µg/mL | – | – | – | –
10 | Oc1cc(NC[C@H]2CC[C@@H]2NCc2ccc(Cl)c(Cl)c2)nc2ccccc12 (racemic) | 0.25 µg/mL (≈ 0.621 µM) | 12 nM | 2 µg/mL (≈ 4.97 µM) | – | – | – | –
11 | Oc1cc(NC[C@H]2CCC[C@@H]2NCc2cc(Br)cc(Br)c2)nc2ccccc12 | < 0.06 µg/mL | 10 nM | < 0.06 µg/mL | – | – | – | –
12 | Oc1cc(N[C@H]2CC[C@H](NCc3ccc(Cl)c(Cl)c3)CC2)nc2ccccc12 | > 64 µg/mL | 2300 nM | > 64 µg/mL | – | – | – | –
13 | Oc1cc(NC[C@@H]2CCC[C@@H]2NCc2ccc(Cl)c(Cl)c2)nc2ccccc12 | 1 µg/mL (≈ 2.4 µM) | 100 nM | 8 µg/mL (≈ 19.2 µM) | – | – | – | –
14 | Oc1cc(NC[C@H]2OCC[C@@H]2NCc2ccc(Cl)c(Cl)c2)nc2ccccc12 | 4 µg/mL (≈ 9.56 µM) | 78 nM | 64 µg/mL (≈ 153 µM) | – | – | – | –

Reference: ChEMBL document CHEMBL1145767, “Conformational restriction of methionyl tRNA synthetase inhibitors leading to analogues with potent inhibition and excellent gram-positive antibacterial activity” (Bioorg Med Chem Lett, 2003)
